Tests used:
[1] = biological target: Pseudomonas monteilii amino acid dehydrogenase DyGDH variant pDyGDH-F95I-A108T-R172P-R303H (F95I/A108T/R172P/R303H of SEQ ID No. 2) (Pseudomonas promysalinigenes, UniProt A0ABY6AJQ3, A108T/F95I/R172P/R303H); assay: Kinetic parameter determination, pDyGDH-F95I-A108T-R172P-R303H; format: biochemical
Method: (§1) The gene of the amino acid dehydrogenase cloned from Pseudomonas monteilii WP_060477601.1 (the nucleotide sequence is shown in SEQ ID No. 1, and the amino acid sequence is shown in SEQ ID No. 2) was used to construct the expression vector pETDEut-dygdh, then the obtained vector was transformed into E. coli to obtain the original strain E. coli BL21(DE3)/pETDEut-dygdh.
The mutant proteins were purified by Ni-NTA column (1.6×10 cm, Bio-Rad, the USA), and the specific operation was carried out as follows: (1) a Ni column was equilibrated with 5 column volumes of binding buffer (pH 8.0, 50 mM sodium phosphate buffer containing 0.3 M NaCl) until the baseline was steady; (2) the sample was loaded with a flow rate of 1 mL/min, the amount of the loading sample was 25-40 mg/mL calculated by the volume of the column, thereby attaching the target protein to the Ni column; (3) the column was washed with 6 column volumes of buffer A (pH 8.0, 50 mM sodium phosphate buffer containing 0.3 M NaCl and 30 mM imidazole) at a flow rate of 1 mL/min until the baseline was steady; (4) the column was washed with buffer B (pH 8.0, 50 mM sodium phosphate buffer containing 0.3 M NaCl and 500 mM imidazole) at a flow rate of 1 mL/min, the target protein was collected and dialyzed overnight in a pH 7.5, 20 mM phosphate buffer, thereby obtaining the pure enzyme; and (5) the Ni column was washed with 5 column volumes of binding buffer (pH 8.0, 50 mM sodium phosphate buffer containing 0.3 M NaCl) until the baseline was steady, and the Ni column was stored in 5 column volumes of ultrapure water containing 20% ethanol.
Kinetic parameters of the amino acid hydrogenase and its mutants were examined, 2-carbonyl-4-(hydroxymethylphosphinyl)-butyric acid was taken as substrate, the concentration was set as 2-10 mM (2, 4, 6, 8, 10 mM), the concentration of exogenous coenzyme NADPH was set as 1-5 mM (1, 2, 3, 4, 5 mM), 100 uL of pure enzyme solution was added (according to Example 4).
(§2) The reaction system was 500 μL, the pure enzyme solution collected in Example 4 was diluted 10 times with pH 7.4, 100 mM phosphate buffer, then 100 μL of the resulting solution was sampled, added with the substrate and exogenous coenzyme NADPH, pH 7.4, 100 mM phosphate buffer was taken as a reaction medium, after reacting at 35° C. and 600 rpm for 10 min, the concentration of L-glufosinate-ammonium in the reacting solution was determined by HPLC (according to Example 4).
(§3) According to the sequential mechanism of amino acid dehydrogenase's catalytic reaction, vmax, Km^A, Km^B can be calculated by dual-reciprocal graph, the results were shown in Table 4.

[2] = biological target: T1, Pseudomonas monteilii amino acid dehydrogenase DyGDH (WP_060477601.1), original pDyGDH, SEQ ID No. 2 (Pseudomonas promysalinigenes, UniProt A0ABY6AJQ3); assay: Kinetic parameter determination, original pDyGDH; format: biochemical; settings: pH 7.4, 35° C.
T1 sequence (A0ABY6AJQ3 1-446): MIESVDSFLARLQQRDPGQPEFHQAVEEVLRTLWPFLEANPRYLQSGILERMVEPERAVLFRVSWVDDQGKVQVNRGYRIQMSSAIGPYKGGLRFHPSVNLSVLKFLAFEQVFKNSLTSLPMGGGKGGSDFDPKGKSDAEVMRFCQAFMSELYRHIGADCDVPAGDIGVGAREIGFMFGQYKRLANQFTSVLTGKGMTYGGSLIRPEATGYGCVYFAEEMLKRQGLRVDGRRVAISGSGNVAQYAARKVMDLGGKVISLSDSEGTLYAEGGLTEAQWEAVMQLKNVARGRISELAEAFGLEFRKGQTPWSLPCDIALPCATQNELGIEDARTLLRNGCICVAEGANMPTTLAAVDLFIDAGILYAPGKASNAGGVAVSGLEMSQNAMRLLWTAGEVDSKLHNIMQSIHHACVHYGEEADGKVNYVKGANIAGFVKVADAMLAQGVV
Method: as §1, with “BL21(DE3)/pETDEut-dygdh. […]” for “BL21(DE3)/pETDEut-dygdh.”
as §2, §3

Row | Compound | kcat/Km^A (NADPH) ([1]; pH 7.4, 35° C.) [M⁻¹ s⁻¹] | catalytic efficiency on coenzyme NADPH, times higher than that of the original enzyme ([1]; versus original pDyGDH) [times] | kcat/Km^A (NADPH) [2] [M⁻¹ s⁻¹] | kcat/Km^B (2-carbonyl-4-(hydroxymethylphosphinyl)-butyric acid) ([1]; pH 7.4, 35° C.) [M⁻¹ s⁻¹] | catalytic efficiency kcat/Km^B on 2-carbonyl-4-(hydroxymethylphosphinyl)-butyric acid, times higher than that of the original enzyme ([1]; versus original pDyGDH) [times] | kcat/Km^B (2-carbonyl-4-(hydroxymethylphosphinyl)-butyric acid) [2] [M⁻¹ s⁻¹]
1 | NC(=O)C1=CN([C@@H]2O[C@H](COP(=O)(O)OP(=O)(O)OC[C@H]3O[C@@H](n4cnc5c(N)ncnc54)[C@H](OP(=O)(O)O)[C@@H]3O)[C@@H](O)[C@H]2O)C=CC1 [NADPH] | 1.43823e+07 | 37.3 | 385670 |  |  | 
2 | CP(=O)(O)CCC(=O)C(=O)O [2-carbonyl-4-(hydroxymethylphosphinyl)-butyric acid] |  |  |  | 363100 | 29.3 | 12410
